Measured values from patent US5108930A, “Aminoguanidine assay and applications thereof” (Alteon Inc., priority 1990, dated 1992).
Entries after “also recorded” stand apart in the source; their conditions may differ. Read-outs that look alike come from different tables or passages of the source.

Tests used:
[1] = elimination half-life of aminoguanidine in plasma of patients (HPLC assay) for measurement of kidney function; format: in vivo, human; conditions: 300 mg oral aminoguanidine hydrochloride; for half-life: human, plasma, po, 300 mg, plasma at 10, 14, 18 hours, read-out: AG T1/2 (converted)
Protocol: A) A single 300 mg dose of aminoguanidine hydrochloride is administered to the patient. Administration may be either by a capsule or tablet taken orally, or by a liquid syrup, elixir or the like.
B) After administration of the aminoguanidine or analog material, periodic collection of plasma samples is then conducted. For example, minimum 3 ml blood samples may be collected, and in the instance where aminoguanidine is administered in dry form as in a pill, the first sample may be taken 10 hours after ingestion, the second sample may be taken 14 hours after ingestion, and the third sample may be taken 18 hours after ingestion. In the instance where a liquid is administered, a similar regimen may be observed.
C) The samples collected at the intervals indicated may then be processed in accordance with the method of the present invention to determine aminoguanidine concentration.
D) Thereafter, the elimination half-life (T1/2) may be determined. Particularly, the data may be interpreted and determined by reference to the relationship wherein the slope of the logarithmic decline of plasma concentration over time is identified as the elimination rate (Kelim). Elimination half-life (T1/2) is related to Kelim by the following equation: [formula]
To a 0.5 mL plasma sample was added 0.5 mL of the working internal standard solution (10 μg/mL N-ethyl aminoguanidine tosylate in 7.5% trichloracetic acid). After vortexing (10 sec.) and centrifugation in a microfuge (Eppendorf, 14,000 rpm, 10 min.), the supernatant was decanted into a clean screw top culture tube containing 0.1 mL of an aqueous (10 mg/mL) solution of reacting agent (6-methyl-2-pyridine-carboxaldehyde). The sample was then capped tightly and reacted in a heating block (95°-100° C.) for 10 minutes. After cooling, i the sample was transferred into an HPLC vial, from which a 200 μL aliquot was injected for HPLC analysis.
A Waters Associates Model 510 pump was utilized with a radial compression column (Waters Novapak CN, 8 mm ×10 cm, 4 μm particle size) and a cyano (Waters Resolve Guard-Pak CN) precolumn. Detection was performed using a variable ultraviolet detector (Waters 484) at 302 nm. The mobile phase consisted of (volume to volume) 15% acetonitrile: 10% methanol: 75% of 0.01 M each of 1heptanesulfonic acid and sodium phosphate monobasic. Flow rate was maintained isocratically at 2.0 mL/min. at ambient temperature. Sequential automatic injections were made via a programmable sampler (Waters WISP 712).
All data acquisitions were performed with a Waters Maxima 820 system. A linear test squares analysis of the ratios of drug peak height to internal standard peak height versus concentrations added to human plasma in standards constituted daily instrumentation standardization. Interpolation from the linear regression line determined concentrations of aminoguanidine in quality control and unknown assayed samples
[…] After administration of this total dosage, plasma samples were collected from each of the patients at intervals of 10 hours, 14 hours and 18 hours after administration. The plasma samples were then taken and subjected to the assay of the present invention, in accordance with the protocol utilized in Example 1.
Accordingly, the samples were first combined with a quantity of a working internal standard solution of N-ethyl aminoguanidine tosylate in 7.5 percent trichloroacetic acid. The resulting samples were vortexed for 10 seconds and centrifuged for a period of 10 minutes at a speed of 14,000 rpm. The supernatants were then decanted into a culture tube containing 0 1 ml of an aqueous solution ([…]) of 6-methyl picolinaldehyde. The samples were then tightly capped and reacted in a heating block for a period of 10 minutes, and after cooling, were transferred into HPLC vials from which aliquots were then injected for HPLC analysis.
A radial compression chromatographic column was utilized with an isocratic flow rate and under paired-ion conditions. […]

histamine = conditions: human pregnancy (title of cited paper); cited from earlier work
histaminase = conditions: cited from earlier work
[2] = system: glucose-mediated cross-linking of proteins; conditions: cited from earlier work
diamine oxidase = conditions: cited from earlier work

## N=C(N)NN [aminoguanidine]
[1]
  relationship between aminoguanidine half-life and kidney function (GFR), in words: fairly consistent and linear relationship; also recorded: excellent linear correlation; also recorded: inverse relationship
[1]; n=18
  correlation coefficient r of aminoguanidine T1/2 with GFR: 0.875
[1]; patient 1, GFR 12.8
  half-life: 24.6 h
[1]; patient 2, GFR 52.4
  half-life: 14.2 h
[1]; patient 3, GFR 116.3
  half-life: 3.83 h
[1]; patient 4, GFR 44.1
  half-life: 21.8 h
[1]; patient 5, GFR 31.1
  half-life: 19 h
[1]; patient 6, GFR 80.5
  half-life: 6.78 h
[1]; patient 7, GFR 26.7
  half-life: 14.8 h
[1]; patient 8, GFR 12.1
  half-life: 24.9 h
[1]; patient 9, GFR 117.2
  half-life: 4.73 h
[1]; patient 10, GFR 148.9
  half-life: 3.94 h
[1]; patient 11, GFR 111.9
  half-life: 6.82 h
[1]; patient 12, GFR 103.8
  half-life: 6.08 h
[1]; patient 13, GFR 41.6
  half-life: 14.9 h
[1]; patient 14, GFR 39.2
  half-life: 9.54 h
[1]; patient 15, GFR 113.2
  half-life: 4.81 h
[1]; patient 16, GFR 82.2
  half-life: 6.03 h
[1]; patient 18, GFR 131.3
  half-life: 7.05 h
[1]; patient 19, GFR 131.1
  half-life: 6.46 h
histamine
  levels of histamine: increase levels of histamine
histaminase
  inhibitory action on the enzyme histaminase: inhibitory action
[2]
  inhibition of glucose-mediated cross-linking of proteins: inhibitor of glucose-mediated cross-linking of proteins
Diamine oxidase
  inhibition of diamine oxidase: selective inhibitor
